Patent publication US11147812B2, “Tyrosine analogues derivatives as Rho-kinase inhibitors” (Chiesi Farmaceutici S.p.A., priority 2017, dated 2021)

Columns and labels:
Rho kinase 1 (ROCK1) = Rho kinase 1 (ROCK1) (Homo sapiens, UniProt Q13464); assay: In vitro Rho kinase inhibitory activity assay (ADP-Glo), ROCK1; type: biochemical; settings: 10 μM ATP, 25° C., Ki by Cheng-Prusoff
Protocol: (§1) The effectiveness of compounds of the present invention to inhibit Rho kinase activity can be determined in a 10 μl assay containing 40 mM Tris pH7.5, 20 mM MgCl2 0.1 mg/ml BSA, 50 μM DTT and 2.5 μM peptide substrate (Myelin Basic Protein) using an ADP-Glo kit (Promega). Compounds were dissolved in DMSO such that the final concentration of DMSO was 1% in the assay. All reactions/incubations are performed at 25° C. Compound (2 ul) and either Rho kinase 1 or 2 (4 μl) were mixed and incubated for 30 mins. Reactions were initiated by addition of ATP (4 μl) such that the final concentration of ATP in the assay was 10 μM. After a 1 hour incubation 10 μl of ADP-Glo Reagent was added and after a further 45 minute incubation 20 ul of Kinase Detection Buffer was added and the mixture incubated for a further 30 minutes. The luminescent signal was measured on a luminometer. […] Compounds were tested in dose-response format and the inhibition of kinase activity was calculated at each concentration of compound. To determine the IC50 (concentration of compound required to inhibit 50% of the enzyme activity) data were fit to a plot of % inhibition vs Log10 compound concentration using a sigmoidal fit with a variable slope and fixing the maximum to 100% and the minimum to 0%. To determine the Ki values the Cheng-Prusoff equation was utilized (Ki=IC50/(1+[S]/Km)

Rho kinase 2 (ROCK2) = Rho kinase 2 (ROCK2) (Homo sapiens, UniProt O75116); assay: In vitro Rho kinase inhibitory activity assay (ADP-Glo), ROCK2; type: biochemical; settings: 10 μM ATP, 25° C., Ki by Cheng-Prusoff
Protocol: as §1

Rho kinase 2 (ROCK2), sequence (O75116 whole entry): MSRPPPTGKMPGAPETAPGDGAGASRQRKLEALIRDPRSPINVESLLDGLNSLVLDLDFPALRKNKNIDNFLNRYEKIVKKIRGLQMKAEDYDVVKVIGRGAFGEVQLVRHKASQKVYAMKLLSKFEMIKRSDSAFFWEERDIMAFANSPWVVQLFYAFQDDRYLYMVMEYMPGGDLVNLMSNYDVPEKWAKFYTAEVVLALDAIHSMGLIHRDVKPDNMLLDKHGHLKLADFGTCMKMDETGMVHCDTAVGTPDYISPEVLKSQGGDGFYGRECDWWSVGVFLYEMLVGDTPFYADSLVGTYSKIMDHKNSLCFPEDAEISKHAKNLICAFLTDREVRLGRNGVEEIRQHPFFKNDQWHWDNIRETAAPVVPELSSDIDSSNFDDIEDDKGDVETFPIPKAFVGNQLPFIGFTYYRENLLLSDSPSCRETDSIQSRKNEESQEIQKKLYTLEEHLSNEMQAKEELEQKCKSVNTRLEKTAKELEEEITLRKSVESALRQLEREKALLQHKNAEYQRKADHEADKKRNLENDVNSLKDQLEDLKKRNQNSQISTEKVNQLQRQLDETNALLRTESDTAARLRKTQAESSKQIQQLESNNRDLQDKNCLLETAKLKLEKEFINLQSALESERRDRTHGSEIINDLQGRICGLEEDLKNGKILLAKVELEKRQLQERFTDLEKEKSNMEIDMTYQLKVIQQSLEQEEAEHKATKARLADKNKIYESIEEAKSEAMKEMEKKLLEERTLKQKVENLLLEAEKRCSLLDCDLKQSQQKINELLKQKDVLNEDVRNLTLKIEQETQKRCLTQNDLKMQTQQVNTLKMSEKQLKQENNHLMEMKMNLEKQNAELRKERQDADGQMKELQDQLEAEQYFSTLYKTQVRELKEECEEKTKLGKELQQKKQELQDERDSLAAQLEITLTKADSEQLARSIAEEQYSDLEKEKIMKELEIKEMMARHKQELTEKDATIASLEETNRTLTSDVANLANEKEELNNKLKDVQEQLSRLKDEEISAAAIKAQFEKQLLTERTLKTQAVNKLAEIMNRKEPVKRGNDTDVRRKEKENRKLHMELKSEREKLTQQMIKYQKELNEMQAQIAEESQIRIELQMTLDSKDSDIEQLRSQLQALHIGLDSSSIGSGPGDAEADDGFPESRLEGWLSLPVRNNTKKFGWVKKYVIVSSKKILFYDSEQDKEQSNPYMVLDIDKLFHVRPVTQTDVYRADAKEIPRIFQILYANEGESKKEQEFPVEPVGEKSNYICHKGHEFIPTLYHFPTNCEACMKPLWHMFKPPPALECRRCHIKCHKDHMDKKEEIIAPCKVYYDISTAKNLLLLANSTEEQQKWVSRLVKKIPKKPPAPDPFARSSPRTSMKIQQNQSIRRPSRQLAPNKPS
Rho kinase 1 (ROCK1), sequence (Q13464 whole entry): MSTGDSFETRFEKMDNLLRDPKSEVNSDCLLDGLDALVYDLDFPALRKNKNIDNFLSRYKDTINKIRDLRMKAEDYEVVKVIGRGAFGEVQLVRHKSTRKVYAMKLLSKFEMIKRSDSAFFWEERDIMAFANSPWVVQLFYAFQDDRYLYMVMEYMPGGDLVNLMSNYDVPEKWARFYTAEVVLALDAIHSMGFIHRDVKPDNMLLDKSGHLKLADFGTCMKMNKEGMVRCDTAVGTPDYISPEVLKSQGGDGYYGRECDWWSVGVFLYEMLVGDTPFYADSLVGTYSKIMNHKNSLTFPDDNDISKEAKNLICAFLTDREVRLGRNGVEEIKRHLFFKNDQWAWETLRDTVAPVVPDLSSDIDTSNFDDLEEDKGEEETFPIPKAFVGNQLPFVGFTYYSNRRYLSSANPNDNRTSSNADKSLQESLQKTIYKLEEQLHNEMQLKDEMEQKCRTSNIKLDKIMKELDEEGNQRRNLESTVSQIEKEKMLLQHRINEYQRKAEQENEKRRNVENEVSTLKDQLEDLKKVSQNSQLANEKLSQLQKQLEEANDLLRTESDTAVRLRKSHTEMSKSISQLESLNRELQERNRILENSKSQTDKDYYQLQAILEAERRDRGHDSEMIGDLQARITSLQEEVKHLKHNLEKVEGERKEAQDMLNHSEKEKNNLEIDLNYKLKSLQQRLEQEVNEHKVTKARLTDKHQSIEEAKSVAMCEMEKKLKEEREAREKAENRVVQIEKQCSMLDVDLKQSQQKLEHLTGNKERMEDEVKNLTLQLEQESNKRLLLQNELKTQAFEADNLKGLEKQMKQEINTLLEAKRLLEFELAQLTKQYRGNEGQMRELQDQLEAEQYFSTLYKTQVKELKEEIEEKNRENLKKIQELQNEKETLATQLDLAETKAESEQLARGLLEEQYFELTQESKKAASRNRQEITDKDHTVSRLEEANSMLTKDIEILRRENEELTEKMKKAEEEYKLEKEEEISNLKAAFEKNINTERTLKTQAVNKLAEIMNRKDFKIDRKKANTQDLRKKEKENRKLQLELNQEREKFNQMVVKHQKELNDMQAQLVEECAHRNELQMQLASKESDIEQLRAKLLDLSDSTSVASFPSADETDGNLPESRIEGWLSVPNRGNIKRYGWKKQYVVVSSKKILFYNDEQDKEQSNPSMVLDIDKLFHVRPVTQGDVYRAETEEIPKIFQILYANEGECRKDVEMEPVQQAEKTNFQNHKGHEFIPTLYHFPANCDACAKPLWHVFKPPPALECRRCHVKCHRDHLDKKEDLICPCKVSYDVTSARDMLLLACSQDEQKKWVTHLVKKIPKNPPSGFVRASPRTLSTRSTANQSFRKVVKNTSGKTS

| Structure (SMILES) | Ki (Rho kinase 1 (ROCK1)) [nM] | Ki (Rho kinase 2 (ROCK2)) [nM] |
| --- | --- | --- |
| Cc1c[nH]c2nccc(Oc3ccc([C@H]4CNC[C@@H]4C(=O)N(C)Cc4ccccc4)cc3)c12 (racemic) [Example 18, rac-(3R,4S)-N-benzyl-N-methyl-4-(4-((3-methyl-1H-pyrrolo[2,3-b]pyridin-4-yl)oxy)phenyl)pyrrolidine-3-carboxamide] | 3 to 30 | < 3 |
| CN1CCC(NC(=O)C(N)c2ccc(Oc3ccnc4[nH]ccc34)cc2)CC1 (stereo not drawn) [Example 14, 2-(4-((1H-pyrrolo[2,3-b]pyridin-4-yl)oxy)phenyl)-2-amino-N-(1-methylpiperidin-4-yl)acetamide] | > 30 | > 30 |
| NC(C(=O)NC1CCOCC1)c1ccc(Oc2ccnc3[nH]ccc23)cc1 (stereo not drawn) [Example 13, 2-(4-((1H-pyrrolo[2,3-b]pyridin-4-yl)oxy)phenyl)-2-amino-N-(tetrahydro-2H-pyran-4-yl)acetamide] | > 30 | > 30 |
| Cc1c[nH]c2nccc(Oc3ccc(C(N)CC(=O)N4CCN(Cc5ccccc5)CC4)cc3)c12 (single isomer, unassigned) [Example 7B, 3-amino-1-(4-benzylpiperazin-1-yl)-3-(4-((3-methyl-1H-pyrrolo[2,3-b]pyridin-4-yl)oxy)phenyl)propan-1-one] | 3 to 30 | 3 to 30 |
| Cc1c[nH]c2nccc(Oc3ccc(CC(CN)C(=O)N4C[C@@H]5C[C@H]4CN5C)cc3F)c12 (single isomer, unassigned) [Example 4B] | < 3 | < 3 |
| COCCCN1CNCC(Cc2ccc(Oc3ccnc4[nH]cc(C)c34)c(F)c2)C1=O (stereo not drawn) [Example 42, 5-(3-fluoro-4-((3-methyl-1H-pyrrolo[2,3-b]pyridin-4-yl)oxy)benzyl)-3-(3-methoxypropyl)tetrahydropyrimidin-4(1H)-one] | > 30 | 3 to 30 |
